Where two headings read alike, the source gives them in different places.
Tests used:
Format in all cases: biochemical
HIPK2 = biological target: T1, HIPK2 (Homo sapiens, UniProt Q9H2X6); assay: ProfilerPro Kinase Selectivity, HIPK2; settings: tested at 10 uM, read-out: percent inhibition of the kinase activity
T1 construct: purchased Caliper LifeSciences
Procedure: (§1) Kinome selectivity profiling was performed using two example compounds according to the manufacturer's instructions using Caliper LifeSciences' ProfilerPro Kinase Selectivity Assay Kits. Compounds prepared in Examples 1 and 7 were tested at 10 uM and data were recorded using the Caliper LabChip® EZ Reader™. Each compounds' percent inhibition of the kinase activity measured in this manner is reported in the following lists.

ABL Q252H = biological target: T2, ABL Q252H (Homo sapiens, UniProt P00519, Q252H); assay: ProfilerPro Kinase Selectivity, ABL Q252H; settings: tested at 10 uM, read-out: percent inhibition of the kinase activity
T2 construct: purchased Caliper LifeSciences
Procedure: as §1

NTRK2 = biological target: T3, NTRK2 (Homo sapiens, UniProt Q16620); assay: ProfilerPro Kinase Selectivity, NTRK2; settings: tested at 10 uM, read-out: percent inhibition of the kinase activity
T3 construct: purchased Caliper LifeSciences
Procedure: as §1

ZIPK = biological target: T4, ZIPK (Homo sapiens, UniProt O43293); assay: ProfilerPro Kinase Selectivity, ZIPK; settings: tested at 10 uM, read-out: percent inhibition of the kinase activity
T4 construct: purchased Caliper LifeSciences
Procedure: as §1

DYRK1B = biological target: T5, DYRK1B (Homo sapiens, UniProt Q9Y463); assay: ProfilerPro Kinase Selectivity, DYRK1B; settings: tested at 10 uM, read-out: percent inhibition of the kinase activity
T5 construct: purchased Caliper LifeSciences
Procedure: as §1

PKACA = biological target: T6, PKACA (Homo sapiens, UniProt P17612); assay: ProfilerPro Kinase Selectivity, PKACA; settings: tested at 10 uM, read-out: percent inhibition of the kinase activity
T6 construct: purchased Caliper LifeSciences
Procedure: as §1

TSSK2 = biological target: T7, TSSK2 (Homo sapiens, UniProt Q96PF2); assay: ProfilerPro Kinase Selectivity, TSSK2; settings: tested at 10 uM, read-out: percent inhibition of the kinase activity
T7 construct: purchased Caliper LifeSciences
Procedure: as §1

FER = biological target: T8, FER (Homo sapiens, UniProt P16591); assay: ProfilerPro Kinase Selectivity, FER; settings: tested at 10 uM, read-out: percent inhibition of the kinase activity
T8 construct: purchased Caliper LifeSciences
Procedure: as §1

LRRK2 = LRRK2 (Homo sapiens, UniProt Q5S007); assay: ProfilerPro Kinase Selectivity, LRRK2; settings: read-out: percent inhibition of the kinase activity
Procedure: as §1, with “Reader™.” for “Reader™. Each compounds' percent inhibition of the kinase activity measured in this manner is reported in the following lists.”

ALK = biological target: T9, ALK (Homo sapiens, UniProt Q9UM73); assay: ProfilerPro Kinase Selectivity, ALK; settings: tested at 10 uM, read-out: percent inhibition of the kinase activity
T9 construct: purchased Caliper LifeSciences
Procedure: as §1

BRSK1 = biological target: T10, BRSK1 (Homo sapiens, UniProt Q8TDC3); assay: ProfilerPro Kinase Selectivity, BRSK1; settings: tested at 10 uM, read-out: percent inhibition of the kinase activity
T10 construct: purchased Caliper LifeSciences
Procedure: as §1

PDGFRA D842V = biological target: T11, PDGFRA D842V (Homo sapiens, UniProt P16234, D842V); assay: ProfilerPro Kinase Selectivity, PDGFRA D842V; settings: tested at 10 uM, read-out: percent inhibition of the kinase activity
T11 construct: purchased Caliper LifeSciences
Procedure: as §1

PRKCG = biological target: T12, PRKCG (Homo sapiens, UniProt P05129); assay: ProfilerPro Kinase Selectivity, PRKCG; settings: tested at 10 uM, read-out: percent inhibition of the kinase activity
T12 construct: purchased Caliper LifeSciences
Procedure: as §1

EPHB4 = biological target: T13, EPHB4 (Homo sapiens, UniProt P54760); assay: ProfilerPro Kinase Selectivity, EPHB4; settings: tested at 10 uM, read-out: percent inhibition of the kinase activity
T13 construct: purchased Caliper LifeSciences
Procedure: as §1

MARK4 = biological target: T14, MARK4 (Homo sapiens, UniProt Q96L34); assay: ProfilerPro Kinase Selectivity, MARK4; settings: tested at 10 uM, read-out: percent inhibition of the kinase activity
T14 construct: purchased Caliper LifeSciences
T14 sequence (Q96L34 whole entry, species assumed): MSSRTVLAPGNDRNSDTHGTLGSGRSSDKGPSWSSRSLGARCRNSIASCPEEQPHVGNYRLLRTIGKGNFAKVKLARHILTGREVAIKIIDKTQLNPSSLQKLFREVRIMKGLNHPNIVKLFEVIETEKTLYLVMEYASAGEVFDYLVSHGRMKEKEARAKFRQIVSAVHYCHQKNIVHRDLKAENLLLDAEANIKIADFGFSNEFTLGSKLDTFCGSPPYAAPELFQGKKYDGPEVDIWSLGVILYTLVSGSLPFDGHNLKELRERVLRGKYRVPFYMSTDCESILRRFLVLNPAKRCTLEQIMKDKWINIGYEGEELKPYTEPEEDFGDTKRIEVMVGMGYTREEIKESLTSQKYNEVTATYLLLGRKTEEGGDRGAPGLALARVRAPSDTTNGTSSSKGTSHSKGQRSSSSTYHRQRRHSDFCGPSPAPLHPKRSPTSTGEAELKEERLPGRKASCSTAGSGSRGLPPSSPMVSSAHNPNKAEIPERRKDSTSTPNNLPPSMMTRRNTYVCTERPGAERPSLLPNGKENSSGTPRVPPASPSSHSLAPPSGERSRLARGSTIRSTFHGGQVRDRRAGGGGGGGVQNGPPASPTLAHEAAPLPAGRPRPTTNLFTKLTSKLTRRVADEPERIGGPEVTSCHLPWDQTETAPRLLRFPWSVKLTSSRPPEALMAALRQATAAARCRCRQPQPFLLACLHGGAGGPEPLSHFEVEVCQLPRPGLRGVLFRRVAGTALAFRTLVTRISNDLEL
Procedure: as §1

ROS = biological target: T15, ROS (Homo sapiens, UniProt P08922); assay: ProfilerPro Kinase Selectivity, ROS; settings: tested at 10 uM, read-out: percent inhibition of the kinase activity
T15 construct: purchased Caliper LifeSciences
T15 sequence (P08922 28-2347, species assumed): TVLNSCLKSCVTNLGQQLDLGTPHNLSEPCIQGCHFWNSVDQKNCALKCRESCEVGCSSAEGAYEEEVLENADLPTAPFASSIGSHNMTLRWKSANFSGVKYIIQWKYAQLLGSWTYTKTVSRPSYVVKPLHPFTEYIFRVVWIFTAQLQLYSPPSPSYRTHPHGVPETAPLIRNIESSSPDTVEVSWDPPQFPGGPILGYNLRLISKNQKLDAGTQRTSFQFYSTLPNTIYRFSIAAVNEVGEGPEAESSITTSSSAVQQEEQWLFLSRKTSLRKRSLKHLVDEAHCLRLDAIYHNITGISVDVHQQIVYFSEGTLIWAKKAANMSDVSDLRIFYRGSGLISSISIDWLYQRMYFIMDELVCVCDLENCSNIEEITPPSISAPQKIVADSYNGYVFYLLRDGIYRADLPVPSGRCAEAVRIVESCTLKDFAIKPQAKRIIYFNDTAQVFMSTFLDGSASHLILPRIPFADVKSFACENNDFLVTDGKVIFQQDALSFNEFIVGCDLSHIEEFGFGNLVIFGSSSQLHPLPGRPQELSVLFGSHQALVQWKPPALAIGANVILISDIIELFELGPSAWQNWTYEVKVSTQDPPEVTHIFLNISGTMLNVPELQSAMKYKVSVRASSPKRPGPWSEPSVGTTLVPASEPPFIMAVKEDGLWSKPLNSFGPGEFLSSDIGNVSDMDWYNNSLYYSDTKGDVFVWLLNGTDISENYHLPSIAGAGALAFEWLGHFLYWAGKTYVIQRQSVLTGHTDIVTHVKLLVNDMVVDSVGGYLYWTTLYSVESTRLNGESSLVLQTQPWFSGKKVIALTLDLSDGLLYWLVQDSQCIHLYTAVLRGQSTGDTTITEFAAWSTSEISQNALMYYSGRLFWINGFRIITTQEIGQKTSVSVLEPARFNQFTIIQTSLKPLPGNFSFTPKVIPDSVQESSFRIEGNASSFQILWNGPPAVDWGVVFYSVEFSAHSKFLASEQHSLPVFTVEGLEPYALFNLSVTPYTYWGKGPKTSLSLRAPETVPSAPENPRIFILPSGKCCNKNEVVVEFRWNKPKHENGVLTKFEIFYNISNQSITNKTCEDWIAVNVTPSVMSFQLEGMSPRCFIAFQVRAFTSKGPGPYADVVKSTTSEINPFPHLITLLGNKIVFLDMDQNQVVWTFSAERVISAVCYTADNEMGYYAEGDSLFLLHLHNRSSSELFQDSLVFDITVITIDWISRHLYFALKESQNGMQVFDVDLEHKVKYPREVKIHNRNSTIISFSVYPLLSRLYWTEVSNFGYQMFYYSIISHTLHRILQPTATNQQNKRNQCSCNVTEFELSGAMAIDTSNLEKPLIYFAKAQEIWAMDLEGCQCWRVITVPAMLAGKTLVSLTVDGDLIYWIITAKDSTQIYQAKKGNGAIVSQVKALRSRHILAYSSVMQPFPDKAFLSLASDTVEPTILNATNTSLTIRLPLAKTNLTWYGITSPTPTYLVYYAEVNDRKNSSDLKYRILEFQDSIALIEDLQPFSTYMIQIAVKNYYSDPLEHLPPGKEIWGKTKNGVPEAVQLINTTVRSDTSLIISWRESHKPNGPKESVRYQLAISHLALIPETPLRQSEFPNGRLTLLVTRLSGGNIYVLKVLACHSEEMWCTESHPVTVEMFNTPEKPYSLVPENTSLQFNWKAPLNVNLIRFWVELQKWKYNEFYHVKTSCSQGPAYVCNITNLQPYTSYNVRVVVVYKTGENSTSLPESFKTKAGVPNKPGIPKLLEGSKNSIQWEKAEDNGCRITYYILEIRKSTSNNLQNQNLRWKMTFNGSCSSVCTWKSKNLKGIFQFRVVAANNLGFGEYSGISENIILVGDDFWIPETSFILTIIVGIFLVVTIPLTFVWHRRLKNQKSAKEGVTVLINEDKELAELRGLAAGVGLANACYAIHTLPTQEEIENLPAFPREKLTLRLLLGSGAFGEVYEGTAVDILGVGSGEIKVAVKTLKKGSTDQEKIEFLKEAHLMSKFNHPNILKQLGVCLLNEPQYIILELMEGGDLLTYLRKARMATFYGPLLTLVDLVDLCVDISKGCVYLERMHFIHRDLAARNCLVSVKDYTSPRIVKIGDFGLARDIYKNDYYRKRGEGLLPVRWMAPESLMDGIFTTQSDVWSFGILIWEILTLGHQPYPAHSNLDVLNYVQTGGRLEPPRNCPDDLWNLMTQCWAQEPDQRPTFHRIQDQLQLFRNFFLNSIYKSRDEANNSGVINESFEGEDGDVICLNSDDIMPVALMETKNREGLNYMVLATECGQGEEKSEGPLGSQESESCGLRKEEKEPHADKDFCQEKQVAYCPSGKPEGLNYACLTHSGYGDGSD
Procedure: as §1

AURC = biological target: T16, AURC (Homo sapiens, UniProt Q9UQB9); assay: ProfilerPro Kinase Selectivity, AURC; settings: tested at 10 uM, read-out: percent inhibition of the kinase activity
T16 construct: purchased Caliper LifeSciences
Procedure: as §1

ABL1 E255K = biological target: T17, ABL1 E255K (Homo sapiens, UniProt P00519, E255K); assay: ProfilerPro Kinase Selectivity, ABL1 E255K; settings: tested at 10 uM, read-out: percent inhibition of the kinase activity
T17 construct: purchased Caliper LifeSciences
Procedure: as §1

SYK = biological target: T18, SYK (Homo sapiens, UniProt P43405); assay: ProfilerPro Kinase Selectivity, SYK; settings: tested at 10 uM, read-out: percent inhibition of the kinase activity
T18 construct: purchased Caliper LifeSciences
Procedure: as §1

PRKCE = biological target: T19, PRKCE (Homo sapiens, UniProt Q02156); assay: ProfilerPro Kinase Selectivity, PRKCE; settings: tested at 10 uM, read-out: percent inhibition of the kinase activity
T19 construct: purchased Caliper LifeSciences
Procedure: as §1

IKKE = biological target: T20, IKKE (Homo sapiens, UniProt Q14164); assay: ProfilerPro Kinase Selectivity, IKKE; settings: tested at 10 uM, read-out: percent inhibition of the kinase activity
T20 construct: purchased Caliper LifeSciences
Procedure: as §1

PHKG2 = biological target: T21, PHKG2 (Homo sapiens, UniProt P15735); assay: ProfilerPro Kinase Selectivity, PHKG2; settings: tested at 10 uM, read-out: percent inhibition of the kinase activity
T21 construct: purchased Caliper LifeSciences
T21 sequence (P15735 whole entry, species assumed): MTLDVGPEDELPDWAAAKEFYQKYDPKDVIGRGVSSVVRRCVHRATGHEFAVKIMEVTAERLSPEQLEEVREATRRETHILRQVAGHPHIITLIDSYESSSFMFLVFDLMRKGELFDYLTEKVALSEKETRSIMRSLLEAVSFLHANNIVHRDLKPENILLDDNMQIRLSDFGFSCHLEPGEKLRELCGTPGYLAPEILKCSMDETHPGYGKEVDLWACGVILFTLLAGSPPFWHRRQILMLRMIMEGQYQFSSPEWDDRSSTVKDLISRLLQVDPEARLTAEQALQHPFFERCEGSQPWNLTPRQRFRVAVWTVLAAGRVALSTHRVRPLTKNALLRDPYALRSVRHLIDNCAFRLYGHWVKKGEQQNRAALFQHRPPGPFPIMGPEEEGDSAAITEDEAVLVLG
Procedure: as §1

MNK1 = biological target: T22, MNK1 (Homo sapiens, UniProt Q9BUB5); assay: ProfilerPro Kinase Selectivity, MNK1; settings: tested at 10 uM, read-out: percent inhibition of the kinase activity
T22 construct: purchased Caliper LifeSciences
Procedure: as §1

MSK2 = biological target: T23, MSK2 (Homo sapiens, UniProt O75676); assay: ProfilerPro Kinase Selectivity, MSK2; settings: tested at 10 uM, read-out: percent inhibition of the kinase activity
T23 construct: purchased Caliper LifeSciences
Procedure: as §1

EPHA3 = biological target: T24, EPHA3 (Homo sapiens, UniProt P29320); assay: ProfilerPro Kinase Selectivity, EPHA3; settings: tested at 10 uM, read-out: percent inhibition of the kinase activity
T24 construct: purchased Caliper LifeSciences
T24 sequence (P29320 21-983, species assumed): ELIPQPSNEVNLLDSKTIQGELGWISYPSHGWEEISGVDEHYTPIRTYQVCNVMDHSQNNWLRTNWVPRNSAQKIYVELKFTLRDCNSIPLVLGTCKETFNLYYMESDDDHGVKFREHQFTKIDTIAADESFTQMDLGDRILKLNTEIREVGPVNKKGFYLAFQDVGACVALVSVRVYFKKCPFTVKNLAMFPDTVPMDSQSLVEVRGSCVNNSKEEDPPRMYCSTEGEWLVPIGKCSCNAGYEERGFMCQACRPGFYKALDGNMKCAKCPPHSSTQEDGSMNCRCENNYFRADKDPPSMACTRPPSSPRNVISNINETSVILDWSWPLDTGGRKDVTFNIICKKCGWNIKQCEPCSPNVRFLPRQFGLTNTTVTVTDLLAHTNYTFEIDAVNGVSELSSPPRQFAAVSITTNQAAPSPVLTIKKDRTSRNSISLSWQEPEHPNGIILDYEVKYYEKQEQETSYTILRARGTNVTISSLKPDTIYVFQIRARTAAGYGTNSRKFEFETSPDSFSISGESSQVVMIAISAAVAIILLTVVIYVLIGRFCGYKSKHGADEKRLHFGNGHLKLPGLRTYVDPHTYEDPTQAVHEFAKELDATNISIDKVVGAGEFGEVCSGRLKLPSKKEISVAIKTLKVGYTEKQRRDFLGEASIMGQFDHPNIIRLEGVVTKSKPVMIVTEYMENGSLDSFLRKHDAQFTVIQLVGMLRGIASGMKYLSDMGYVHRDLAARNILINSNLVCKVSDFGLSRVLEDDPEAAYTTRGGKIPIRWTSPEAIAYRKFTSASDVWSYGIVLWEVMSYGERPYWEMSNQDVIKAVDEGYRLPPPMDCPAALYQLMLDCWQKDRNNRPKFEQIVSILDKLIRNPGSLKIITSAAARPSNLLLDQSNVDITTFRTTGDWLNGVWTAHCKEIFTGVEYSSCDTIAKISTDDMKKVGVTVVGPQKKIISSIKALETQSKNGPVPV
Procedure: as §1

LCK = biological target: T25, LCK (Homo sapiens, UniProt P06239); assay: ProfilerPro Kinase Selectivity, LCK; settings: tested at 10 uM, read-out: percent inhibition of the kinase activity
T25 construct: purchased Caliper LifeSciences
T25 sequence (P06239 whole entry, species assumed): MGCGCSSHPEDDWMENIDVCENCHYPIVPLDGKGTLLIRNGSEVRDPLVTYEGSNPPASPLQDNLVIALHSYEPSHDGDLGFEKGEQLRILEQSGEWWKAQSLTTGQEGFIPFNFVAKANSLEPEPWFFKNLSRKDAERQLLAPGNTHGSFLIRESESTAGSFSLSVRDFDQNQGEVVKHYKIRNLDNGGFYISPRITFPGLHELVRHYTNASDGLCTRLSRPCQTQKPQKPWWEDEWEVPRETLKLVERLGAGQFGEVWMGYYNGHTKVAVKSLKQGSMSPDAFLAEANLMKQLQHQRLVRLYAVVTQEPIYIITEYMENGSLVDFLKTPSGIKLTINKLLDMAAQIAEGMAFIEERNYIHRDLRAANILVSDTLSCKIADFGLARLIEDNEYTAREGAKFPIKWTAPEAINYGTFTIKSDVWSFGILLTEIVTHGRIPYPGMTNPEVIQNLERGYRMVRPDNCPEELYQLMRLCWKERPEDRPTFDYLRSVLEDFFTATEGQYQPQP
Procedure: as §1

FGFR1 = biological target: T26, FGFR1 (Homo sapiens, UniProt P11362); assay: ProfilerPro Kinase Selectivity, FGFR1; settings: tested at 10 uM, read-out: percent inhibition of the kinase activity
T26 construct: purchased Caliper LifeSciences
Procedure: as §1

PAK5 = biological target: T27, PAK5 (Homo sapiens, UniProt Q9P286); assay: ProfilerPro Kinase Selectivity, PAK5; settings: tested at 10 uM, read-out: percent inhibition of the kinase activity
T27 construct: purchased Caliper LifeSciences
Procedure: as §1

DAPK1 = biological target: T28, DAPK1 (Homo sapiens, UniProt P53355); assay: ProfilerPro Kinase Selectivity, DAPK1; settings: tested at 10 uM, read-out: percent inhibition of the kinase activity
T28 construct: purchased Caliper LifeSciences
Procedure: as §1

CDK3 = biological target: T29, CDK3 (Homo sapiens, UniProt Q00526); assay: ProfilerPro Kinase Selectivity, CDK3; settings: tested at 10 uM, read-out: percent inhibition of the kinase activity
T29 construct: purchased Caliper LifeSciences
Procedure: as §1

CHK2 = biological target: T30, CHK2 (Homo sapiens, UniProt O96017); assay: ProfilerPro Kinase Selectivity, CHK2; settings: tested at 10 uM, read-out: percent inhibition of the kinase activity
T30 construct: purchased Caliper LifeSciences
Procedure: as §1

EPHB2 = biological target: T31, EPHB2 (Homo sapiens, UniProt P29323); assay: ProfilerPro Kinase Selectivity, EPHB2; settings: tested at 10 uM, read-out: percent inhibition of the kinase activity
T31 construct: purchased Caliper LifeSciences
Procedure: as §1

HCK = biological target: T32, HCK (Homo sapiens, UniProt P08631); assay: ProfilerPro Kinase Selectivity, HCK; settings: tested at 10 uM, read-out: percent inhibition of the kinase activity
T32 construct: purchased Caliper LifeSciences
Procedure: as §1

EPHA5 = biological target: T33, EPHA5 (Homo sapiens, UniProt P54756); assay: ProfilerPro Kinase Selectivity, EPHA5; settings: tested at 10 uM, read-out: percent inhibition of the kinase activity
T33 construct: purchased Caliper LifeSciences
Procedure: as §1

PHKG1 = biological target: T34, PHKG1 (Homo sapiens, UniProt Q16816); assay: ProfilerPro Kinase Selectivity, PHKG1; settings: tested at 10 uM, read-out: percent inhibition of the kinase activity
T34 construct: purchased Caliper LifeSciences
Procedure: as §1

EGFR = biological target: T35, EGFR (Homo sapiens, UniProt P00533); assay: ProfilerPro Kinase Selectivity, EGFR; settings: tested at 10 uM, read-out: percent inhibition of the kinase activity
T35 construct: purchased Caliper LifeSciences
Procedure: as §1

Row | Structure (SMILES) | inhibition at 10 µM (HIPK2) | inhibition at 10 µM (ABL Q252H) | inhibition at 10 µM (NTRK2) | inhibition at 10 µM (ZIPK) | inhibition at 10 µM (DYRK1B) | inhibition at 10 µM (PKACA) | inhibition at 10 µM (TSSK2) | inhibition at 10 µM (FER) | inhibition at 10 µM (ALK) | inhibition at 10 µM (BRSK1) | inhibition at 10 µM (PDGFRA D842V) | inhibition at 10 µM (PRKCG) | inhibition at 10 µM (EPHB4) | inhibition at 10 µM (MARK4) | inhibition at 10 µM (ROS) | inhibition at 10 µM (AURC) | inhibition at 10 µM (ABL1 E255K) | inhibition at 10 µM (SYK) | inhibition at 10 µM (PRKCE) | inhibition at 10 µM (IKKE) | also measured
1 | CC1(C)CC(=O)c2c(SC3CCCC3)sc(-c3cc[nH]n3)c2C1 [Example 7, 3-(Cyclopentylsulfanyl)-6,6-dimethyl-1-(1H-pyrazol-3-yl)-6,7-dihydro-2-benzothiophen-4(5H)-one] | 5% | 3.9% | 7% | 1% | 4.7% | -5.4% | -2.3% | -0.2% | 44.7% | 3.8% | 3.7% | 2.3% | 0.1% | 11.6% | 42.7% | 3.5% | 7.5% | 5.8% | 3.9% | 1.3% | inhibition at 10 µM (LRRK2; LRRK2, tested at 10 uM): 83.1%; inhibition at 10 µM (PHKG2): -2%; inhibition at 10 µM (MNK1): -5.6%; inhibition at 10 µM (MSK2): 10.4%; inhibition at 10 µM (EPHA3): -2.9%; inhibition at 10 µM (LCK): 23.3%; inhibition at 10 µM (FGFR1): 7.4%; inhibition at 10 µM (PAK5): -4.4%; inhibition at 10 µM (DAPK1): -2%; inhibition at 10 µM (CDK3): 2.5%; inhibition at 10 µM (CHK2): 3.7%; inhibition at 10 µM (EPHB2): 2.3%; inhibition at 10 µM (HCK): -1.1%; inhibition at 10 µM (EPHA5): 1.5%; inhibition at 10 µM (PHKG1): 4.6%; inhibition at 10 µM (EGFR): 2.2%
2 | CSc1sc(-c2cc[nH]n2)c2c1C(=O)CCC2 [Example 1, 3-(Methylsulfanyl)-1-(1H-pyrazol-3-yl)-6,7-dihydro-2-benzothiophen-4(5H)-one] | 25.2% | 16.9% | 16.9% | 8.1% | 40.2% | -6% | 20.1% | 11.6% | 23.8% | -0.2% | 33.9% | 10% | 0.6% | -9.4% | 33.7% | 27.9% | 2.8% | 49.9% | -2.7% | -1.5% | inhibition at 10 µM (LRRK2): 93.9%; inhibition at 10 µM (PHKG2): -5.5%; inhibition at 10 µM (MNK1): 1.7%; inhibition at 10 µM (MSK2): 4.2%; inhibition at 10 µM (EPHA3): -2.2%; inhibition at 10 µM (LCK): 4%; inhibition at 10 µM (FGFR1): 1.9%; inhibition at 10 µM (PAK5): -0.6%; inhibition at 10 µM (DAPK1): 7.2%; inhibition at 10 µM (CDK3): 21.4%; inhibition at 10 µM (CHK2): 48.7%; inhibition at 10 µM (EPHB2): 2.6%; inhibition at 10 µM (HCK): 12.5%; inhibition at 10 µM (EPHA5): -3.1%; inhibition at 10 µM (PHKG1): 6.3%; inhibition at 10 µM (EGFR): -3.1%

— patent US20130338106A1, “COMPOUNDS INHIBITING LEUCINE-RICH REPEAT KINASE ENZYME ACTIVITY” (priority 2011, published 2013)
